Experimental data reported in PubChem BioAssay (NCI).
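Five concentrations, 48 hours, 96-well plates. TGI: total growth inhibition.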

Legend:
Assay in all cases: inhibition of tumour cell growth, NCI panel, 48 h
UO-31 renal = tested on: UO-31 renal
HS 578T breast = tested on: HS 578T breast
A498 renal = tested on: A498 renal
HT29 colon = tested on: HT29 colon
EKVX NSCLC = tested on: EKVX NSCLC
MOLT-4 leukemia = tested on: MOLT-4 leukemia
HOP-92 NSCLC = tested on: HOP-92 NSCLC
MDA-N = tested on: MDA-N
SF-539 CNS = tested on: SF-539 CNS
UACC-62 melanoma = tested on: UACC-62 melanoma
IGROV1 ovarian = tested on: IGROV1 ovarian
KM12 colon = tested on: KM12 colon
CCRF-CEM leukemia = tested on: CCRF-CEM leukemia
OVCAR-4 ovarian = tested on: OVCAR-4 ovarian
HOP-62 NSCLC = tested on: HOP-62 NSCLC
U251 CNS = tested on: U251 CNS
TK-10 renal = tested on: TK-10 renal
786-0 renal = tested on: 786-0 renal
HL-60(TB) leukemia = tested on: HL-60(TB) leukemia
CAKI-1 renal = tested on: CAKI-1 renal
OVCAR-5 ovarian = tested on: OVCAR-5 ovarian
RXF 393 renal = tested on: RXF 393 renal
MDA-MB-435 = tested on: MDA-MB-435
HCT-116 colon = tested on: HCT-116 colon
MALME-3M melanoma = tested on: MALME-3M melanoma
SK-MEL-5 melanoma = tested on: SK-MEL-5 melanoma
COLO 205 colon = tested on: COLO 205 colon
MDA-MB-231 breast = tested on: MDA-MB-231 breast
SK-OV-3 ovarian = tested on: SK-OV-3 ovarian
T-47D breast = tested on: T-47D breast
ACHN renal = tested on: ACHN renal
NCI-H460 lung = tested on: NCI-H460 lung
NCI-H522 lung = tested on: NCI-H522 lung
SNB-19 CNS = tested on: SNB-19 CNS
HCT-15 colon = tested on: HCT-15 colon
SK-MEL-28 melanoma = tested on: SK-MEL-28 melanoma
UACC-257 melanoma = tested on: UACC-257 melanoma
SW-620 colon = tested on: SW-620 colon
SR leukemia = tested on: SR leukemia
PC-3 prostate = tested on: PC-3 prostate
NCI-H23 lung = tested on: NCI-H23 lung
M14 melanoma = tested on: M14 melanoma
BT-549 breast = tested on: BT-549 breast
K-562 leukemia = tested on: K-562 leukemia
NCI-H226 lung = tested on: NCI-H226 lung
SF-295 CNS = tested on: SF-295 CNS
SK-MEL-2 melanoma = tested on: SK-MEL-2 melanoma
OVCAR-3 ovarian = tested on: OVCAR-3 ovarian
HCC-2998 colon = tested on: HCC-2998 colon
OVCAR-8 ovarian = tested on: OVCAR-8 ovarian
MCF7 breast = tested on: MCF7 breast
A549 NSCLC = tested on: A549 NSCLC
NCI/ADR-RES ovarian = tested on: NCI/ADR-RES ovarian
SF-268 CNS = tested on: SF-268 CNS
SN12C renal = tested on: SN12C renal
DU-145 prostate = tested on: DU-145 prostate
RPMI-8226 leukemia = tested on: RPMI-8226 leukemia
SNB-75 CNS = tested on: SNB-75 CNS
LOX IMVI melanoma = tested on: LOX IMVI melanoma

`CCOC(=O)Nc1cc2ccccc2c(N=Nc2ccccc2)c1O` was tested, and the TGI (UO-31 renal) was > 100 µM, the TGI (HS 578T breast) was > 100 µM and the TGI (A498 renal) was > 100 µM. For the same compound, the TGI (HT29 colon) was > 100 µM, the TGI (EKVX NSCLC) was > 100 µM and the TGI (MOLT-4 leukemia) was > 100 µM. The TGI (HOP-92 NSCLC) was > 100 µM, the TGI (MDA-N) was > 100 µM and the TGI (SF-539 CNS) was 35.8 µM. The TGI (UACC-62 melanoma) was > 100 µM, the TGI (IGROV1 ovarian) was > 100 µM and the TGI (KM12 colon) was > 100 µM. For the same compound, the TGI (CCRF-CEM leukemia) was > 100 µM, the TGI (OVCAR-4 ovarian) was 49.3 µM and the TGI (HOP-62 NSCLC) was > 100 µM. The TGI (U251 CNS) was > 100 µM, the TGI (TK-10 renal) was > 100 µM and the TGI (786-0 renal) was > 100 µM. For the same compound, the TGI (HL-60(TB) leukemia) was > 100 µM, the TGI (CAKI-1 renal) was > 100 µM and the TGI (OVCAR-5 ovarian) was > 100 µM. For the same compound, the TGI (RXF 393 renal) was 69.4 µM, the TGI (MDA-MB-435) was > 100 µM and the TGI (HCT-116 colon) was > 100 µM. For the same compound, the TGI (MALME-3M melanoma) was > 100 µM, the TGI (SK-MEL-5 melanoma) was > 100 µM and the TGI (COLO 205 colon) was > 100 µM. The TGI (MDA-MB-231 breast) was > 100 µM, the TGI (SK-OV-3 ovarian) was > 100 µM and the TGI (T-47D breast) was > 100 µM. For the same compound, the TGI (ACHN renal) was > 100 µM, the TGI (NCI-H460 lung) was > 100 µM and the TGI (NCI-H522 lung) was > 100 µM. For the same compound, the TGI (SNB-19 CNS) was > 100 µM, the TGI (HCT-15 colon) was > 100 µM and the TGI (SK-MEL-28 melanoma) was > 100 µM. For the same compound, the TGI (UACC-257 melanoma) was > 100 µM, the TGI (SW-620 colon) was > 100 µM and the TGI (SR leukemia) was > 100 µM. The TGI (PC-3 prostate) was > 100 µM, the TGI (NCI-H23 lung) was > 100 µM and the TGI (M14 melanoma) was > 100 µM. For the same compound, the TGI (BT-549 breast) was > 100 µM, the TGI (K-562 leukemia) was > 100 µM and the TGI (NCI-H226 lung) was > 100 µM. The TGI (SF-295 CNS) was > 100 µM, the TGI (SK-MEL-2 melanoma) was > 100 µM and the TGI (OVCAR-3 ovarian) was > 100 µM. The TGI (HCC-2998 colon) was > 100 µM, the TGI (OVCAR-8 ovarian) was > 100 µM and the TGI (MCF7 breast) was > 100 µM. The TGI (A549 NSCLC) was > 100 µM, the TGI (NCI/ADR-RES ovarian) was > 100 µM and the TGI (SF-268 CNS) was > 100 µM. The TGI (SN12C renal) was > 100 µM, the TGI (DU-145 prostate) was > 100 µM and the TGI (RPMI-8226 leukemia) was > 100 µM. The TGI (SNB-75 CNS) was > 100 µM.

In the case of `CC1OC(OC2C(O[C@H]3CC[C@@]4(C)C(=CC[C@H]5[C@@H]6C[C@@H]7O[C@]8(CC[C@@H](C)CO8)[C@@H](C)[C@@H]7[C@@]6(C)CC[C@@H]54)C3)OC(CO)C(O)C2O)C(O)C(O)C1O` (stereo not given in full), the TGI (UO-31 renal) was 1.98 µM, the TGI (HS 578T breast) was 3.85 µM and the TGI (A498 renal) was 2.98 µM. The TGI (HT29 colon) was 2.37 µM, the TGI (EKVX NSCLC) was 6.47 µM and the TGI (MOLT-4 leukemia) was > 25 µM. For the same compound, the TGI (HOP-92 NSCLC) was 6.17 µM, the TGI (MDA-N) was 6.54 µM and the TGI (SF-539 CNS) was 4.53 µM. For the same compound, the TGI (UACC-62 melanoma) was 2.7 µM, the TGI (IGROV1 ovarian) was 6.08 µM and the TGI (KM12 colon) was 2.19 µM. For the same compound, the TGI (CCRF-CEM leukemia) was 1.21 µM, the TGI (OVCAR-4 ovarian) was 2.47 µM and the TGI (HOP-62 NSCLC) was 2.67 µM. The TGI (U251 CNS) was 1.87 µM, the TGI (TK-10 renal) was 3.57 µM and the TGI (786-0 renal) was 2.37 µM. It also gave a TGI (HL-60(TB) leukemia) of 2.87 µM, a TGI (CAKI-1 renal) of 3.54 µM and a TGI (OVCAR-5 ovarian) of 6.16 µM. It also gave a TGI (RXF 393 renal) of 3.04 µM, a TGI (MDA-MB-435) of 2.8 µM and a TGI (HCT-116 colon) of 3.95 µM. It also gave a TGI (MALME-3M melanoma) of 6.65 µM, a TGI (SK-MEL-5 melanoma) of 7.52 µM and a TGI (COLO 205 colon) of 6.33 µM. The TGI (MDA-MB-231 breast) was 3.14 µM, the TGI (SK-OV-3 ovarian) was 6.14 µM and the TGI (T-47D breast) was 8.66 µM. It also gave a TGI (ACHN renal) of 3.44 µM, a TGI (NCI-H460 lung) of 2.34 µM and a TGI (LOX IMVI melanoma) of 3.49 µM. For the same compound, the TGI (NCI-H522 lung) was 2.77 µM, the TGI (SNB-19 CNS) was 2.38 µM and the TGI (HCT-15 colon) was 5.21 µM. For the same compound, the TGI (SK-MEL-28 melanoma) was > 11.8 µM, the TGI (UACC-257 melanoma) was 4.9 µM and the TGI (SW-620 colon) was 2.31 µM. It also gave a TGI (SR leukemia) of 6.71 µM, a TGI (PC-3 prostate) of 1.63 µM and a TGI (NCI-H23 lung) of 5.61 µM. For the same compound, the TGI (M14 melanoma) was 2.44 µM, the TGI (BT-549 breast) was 8.31 µM and the TGI (K-562 leukemia) was > 25 µM. It also gave a TGI (NCI-H226 lung) of 8.03 µM, a TGI (SF-295 CNS) of 2.44 µM and a TGI (SK-MEL-2 melanoma) of 6.21 µM. For the same compound, the TGI (OVCAR-3 ovarian) was 6.65 µM, the TGI (HCC-2998 colon) was 2.26 µM and the TGI (OVCAR-8 ovarian) was 3.63 µM. For the same compound, the TGI (MCF7 breast) was 4.12 µM, the TGI (A549 NSCLC) was 1.76 µM and the TGI (NCI/ADR-RES ovarian) was 4.64 µM. For the same compound, the TGI (SF-268 CNS) was 5.46 µM, the TGI (SN12C renal) was 3.27 µM and the TGI (DU-145 prostate) was 2.53 µM. The TGI (RPMI-8226 leukemia) was > 25 µM and the TGI (SNB-75 CNS) was 2.62 µM.

In the case of `CCCCCCCCCCCCCCCCNc1ccn(C2CC(O)C(COC(c3ccccc3)(c3ccccc3)c3ccc(OC)cc3)O2)c(=O)n1` (stereo not given), the TGI (UO-31 renal) was 53.8 µM, the TGI (HS 578T breast) was > 100 µM and the TGI (A498 renal) was > 100 µM. For the same compound, the TGI (HT29 colon) was > 100 µM, the TGI (EKVX NSCLC) was > 100 µM and the TGI (MOLT-4 leukemia) was > 100 µM. For the same compound, the TGI (HOP-92 NSCLC) was > 100 µM, the TGI (MDA-N) was > 100 µM and the TGI (SF-539 CNS) was > 100 µM. For the same compound, the TGI (UACC-62 melanoma) was > 100 µM, the TGI (IGROV1 ovarian) was > 100 µM and the TGI (KM12 colon) was > 100 µM. The TGI (CCRF-CEM leukemia) was > 100 µM, the TGI (OVCAR-4 ovarian) was > 100 µM and the TGI (HOP-62 NSCLC) was > 100 µM. For the same compound, the TGI (U251 CNS) was > 100 µM, the TGI (TK-10 renal) was > 100 µM and the TGI (786-0 renal) was > 100 µM. The TGI (HL-60(TB) leukemia) was > 100 µM, the TGI (CAKI-1 renal) was > 100 µM and the TGI (OVCAR-5 ovarian) was > 100 µM. For the same compound, the TGI (RXF 393 renal) was > 100 µM, the TGI (MDA-MB-435) was > 100 µM and the TGI (HCT-116 colon) was > 100 µM. The TGI (MALME-3M melanoma) was > 100 µM, the TGI (SK-MEL-5 melanoma) was > 100 µM and the TGI (COLO 205 colon) was > 100 µM. The TGI (MDA-MB-231 breast) was > 100 µM, the TGI (SK-OV-3 ovarian) was > 100 µM and the TGI (T-47D breast) was > 100 µM. For the same compound, the TGI (ACHN renal) was > 100 µM, the TGI (NCI-H460 lung) was > 100 µM and the TGI (LOX IMVI melanoma) was > 100 µM. The TGI (NCI-H522 lung) was > 100 µM, the TGI (SNB-19 CNS) was > 100 µM and the TGI (HCT-15 colon) was > 100 µM. The TGI (SK-MEL-28 melanoma) was > 100 µM, the TGI (SW-620 colon) was > 100 µM and the TGI (SR leukemia) was > 100 µM. For the same compound, the TGI (PC-3 prostate) was > 100 µM, the TGI (NCI-H23 lung) was > 100 µM and the TGI (M14 melanoma) was > 100 µM. For the same compound, the TGI (BT-549 breast) was > 100 µM, the TGI (K-562 leukemia) was > 100 µM and the TGI (NCI-H226 lung) was > 100 µM. The TGI (SF-295 CNS) was > 100 µM, the TGI (SK-MEL-2 melanoma) was > 100 µM and the TGI (OVCAR-3 ovarian) was > 100 µM. The TGI (HCC-2998 colon) was > 100 µM, the TGI (OVCAR-8 ovarian) was > 100 µM and the TGI (MCF7 breast) was > 100 µM. The TGI (A549 NSCLC) was > 100 µM, the TGI (NCI/ADR-RES ovarian) was > 100 µM and the TGI (SF-268 CNS) was > 100 µM. The TGI (SN12C renal) was > 100 µM, the TGI (DU-145 prostate) was > 100 µM and the TGI (RPMI-8226 leukemia) was > 100 µM. The TGI (SNB-75 CNS) was > 100 µM.
